Tested on: GNS166 cells
Assay: Label-free proteomics differential expression
Format: cell-based, human
Description: Proteomic studies were performed by the Proteomics Facility of the CIC bioGUNE by label-free relative quantification on nLC MS/MS. […] In both approaches, the top 20 enriched terms were plotted and the pathways were clustered using divisive hierarchical clustering based on pairwise Jaccard distances.

C#CCN(Cc1cc2cc(OCCCN3CCCCC3)ccc2n1S(=O)(=O)c1ccccc1)C(=O)CCCCCCC(=O)NO [DDI]
LogFC STAU1_HUMAN (protein O95793): -0.5064
LogFC BPNT1_HUMAN (protein O95861 GN=BPNT1): 0.8709
Direction MBD3_HUMAN (protein O95983): Down
LogFC MBD3_HUMAN (protein O95983): -1.39
Direction ZBED1_HUMAN (protein O96006): Down
LogFC ZBED1_HUMAN (protein O96006): -1.855
Direction NSD2_HUMAN (protein O96028): Down
LogFC NSD2_HUMAN (protein O96028): -2.1573
LogFC TPC2B_HUMAN (protein P0DI82 GN=TRAPPC2B): 1.676
LogFC HS71A_HUMAN (protein P0DMV8 GN=HSPA1A): 0.6446
LogFC AL1A1_HUMAN (protein P00352 GN=ALDH1A1): 1.798
Direction EGFR_HUMAN (protein P00533): Down
LogFC EGFR_HUMAN (protein P00533): -0.977
LogFC TPA_HUMAN (protein P00750 GN=PLAT): 1.254
LogFC CAH2_HUMAN (protein P00918 GN=CA2): 2.905
LogFC LDLR_HUMAN (protein P01130 GN=LDLR): -1.436
LogFC TFR1_HUMAN (protein P02786 GN=TFRC): 0.6801
LogFC TRFE_HUMAN (protein P02787 GN=TF): 1.471
LogFC FRIL_HUMAN (protein P02792 GN=FTL): 2.1013
LogFC GLCM_HUMAN (protein P04062 GN=GBA): 1.34
Direction ANXA1_HUMAN (protein P04083): Down
LogFC ANXA1_HUMAN (protein P04083): -0.1864
LogFC OAT_HUMAN (protein P04181 GN=OAT): 0.8669
LogFC TBB4A_HUMAN (protein P04350 GN=TUBB4A): 2.022
LogFC AT1B1_HUMAN (protein P05026 GN=ATP1B1): 0.7382
LogFC CHLE_HUMAN (protein P06276 GN=BCHE): 1.793
LogFC GELS_HUMAN (protein P06396 GN=GSN): 1.338
Direction CDK1_HUMAN (protein P06493): Down
LogFC CDK1_HUMAN (protein P06493): -2.828
LogFC H10_HUMAN (protein P07305 GN=H1-0): 2.4177
Direction CAN1_HUMAN (protein P07384): Down
LogFC CAN1_HUMAN (protein P07384): -0.5477
LogFC HEXB_HUMAN (protein P07686 GN=HEXB): 2.1461
LogFC TNR16_HUMAN (protein P08138 GN=NGFR): 4.357
LogFC ASNS_HUMAN (protein P08243 GN=ASNS): 0.9749
LogFC ANXA5_HUMAN (protein P08758 GN=ANXA5): 0.5383
Direction SRP19_HUMAN (protein P09132): Down
LogFC SRP19_HUMAN (protein P09132): -0.7201
Direction HMGB1_HUMAN (protein P09429): Down
LogFC HMGB1_HUMAN (protein P09429): -0.3836
LogFC SPRC_HUMAN (protein P09486 GN=SPARC): 0.9159
Direction DPOLA_HUMAN (protein P09884): Down
LogFC DPOLA_HUMAN (protein P09884): -0.7754
LogFC TZAP_HUMAN (protein P10074 GN=ZBTB48): 0.6846
LogFC LYAG_HUMAN (protein P10253 GN=GAA): 1.719
LogFC RRAS_HUMAN (protein P10301 GN=RRAS): 1.8337
Direction COT1_HUMAN (protein P10589): Down
LogFC COT1_HUMAN (protein P10589): -2.0511
LogFC PPGB_HUMAN (protein P10619 GN=CTSA): 1.238
LogFC LAMC1_HUMAN (protein P11047 GN=LAMC1): 1.296
LogFC MTAP2_HUMAN (protein P11137 GN=MAP2): 1.918
Direction GTR1_HUMAN (protein P11166): Down
LogFC GTR1_HUMAN (protein P11166): -1.063
LogFC GTR3_HUMAN (protein P11169 GN=SLC2A3): 0.7017
Direction PYGM_HUMAN (protein P11217): Down
LogFC PYGM_HUMAN (protein P11217): -1.18
LogFC LAMP1_HUMAN (protein P11279 GN=LAMP1): 0.9125
Direction TOP2A_HUMAN (protein P11388): Down
LogFC TOP2A_HUMAN (protein P11388): -2.075
LogFC G6PD_HUMAN (protein P11413 GN=G6PD): 0.8016
LogFC PRPS2_HUMAN (protein P11908 GN=PRPS2): 1.0339
Direction COBA1_HUMAN (protein P12107): Down
LogFC COBA1_HUMAN (protein P12107): -0.989
Direction CO6A1_HUMAN (protein P12109): Down
LogFC CO6A1_HUMAN (protein P12109): -2.398
LogFC LAMP2_HUMAN (protein P13473 GN=LAMP2): 0.7741
LogFC MTDC_HUMAN (protein P13995 GN=MTHFD2): 1.415
LogFC CBPM_HUMAN (protein P14384 GN=CPM): 1.371
Direction CCNB1_HUMAN (protein P14635): Down
LogFC CCNB1_HUMAN (protein P14635): -2.713
LogFC ARSA_HUMAN (protein P15289 GN=ARSA): 0.8733
LogFC NQO2_HUMAN (protein P16083 GN=NQO2): 1.439
Direction ITB4_HUMAN (protein P16144): Down
LogFC ITB4_HUMAN (protein P16144): -1.613
LogFC CBR1_HUMAN (protein P16152 GN=CBR1): 1.143
Direction ANK1_HUMAN (protein P16157): Down
LogFC ANK1_HUMAN (protein P16157): -1.996
Direction GCFC2_HUMAN (protein P16383): Down
LogFC GCFC2_HUMAN (protein P16383): -2.09
LogFC SYN1_HUMAN (protein P17600 GN=SYN1): 2.1979
Direction CAN2_HUMAN (protein P17655): Down
LogFC CAN2_HUMAN (protein P17655): -0.5036
LogFC DDX5_HUMAN (protein P17844 GN=DDX5): -0.6799
Direction PFKAL_HUMAN (protein P17858): Down
LogFC PFKAL_HUMAN (protein P17858): -0.5357
Direction ITB5_HUMAN (protein P18084): Down
LogFC ITB5_HUMAN (protein P18084): -1.897
Direction SDC1_HUMAN (protein P18827): Down
LogFC SDC1_HUMAN (protein P18827): -2.102
Direction PLCG1_HUMAN (protein P19174): Down
LogFC PLCG1_HUMAN (protein P19174): -1.036
LogFC RXRA_HUMAN (protein P19793 GN=RXRA): -2.086
Direction MX1_HUMAN (protein P20591): Down
LogFC MX1_HUMAN (protein P20591): -3.492
LogFC FILA_HUMAN (protein P20930 GN=FLG): 2.48
Direction RASA1_HUMAN (protein P20936): Down
LogFC RASA1_HUMAN (protein P20936): -0.7321
LogFC VATB2_HUMAN (protein P21281 GN=ATP6V1B2): 1.09
LogFC VATC1_HUMAN (protein P21283 GN=ATP6V1C1): 0.7781
LogFC AOFA_HUMAN (protein P21397 GN=MAOA): 0.8861
LogFC ACOC_HUMAN (protein P21399 GN=ACO1): 0.9989
LogFC TGM2_HUMAN (protein P21980 GN=TGM2): 2.278
Direction PTPRE_HUMAN (protein P23469): Down
LogFC PTPRE_HUMAN (protein P23469): -2.558
Direction RIR1_HUMAN (protein P23921): Down
LogFC RIR1_HUMAN (protein P23921): -1.151
Direction MCM3_HUMAN (protein P25205): Down
LogFC MCM3_HUMAN (protein P25205): -0.4173
LogFC MOES_HUMAN (protein P26038 GN=MSN): -0.6643
Direction DNMT1_HUMAN (protein P26358): Down
LogFC DNMT1_HUMAN (protein P26358): -0.8972
Direction HMGB2_HUMAN (protein P26583): Down
LogFC HMGB2_HUMAN (protein P26583): -0.4752
Direction SYVC_HUMAN (protein P26640): Down
LogFC SYVC_HUMAN (protein P26640): -0.2125
